Laboratory results: US9789110B2, “Diacylglycerol acyltransferase 2 inhibitors” (PFIZER INC., priority 2014, dated 2017)

What follows are compounds tested against hDGAT2 (Homo sapiens (Human), UniProt Q96PD7) (assay: In vitro DGAT2 assay, hDGAT2 membrane fraction, [14C]decanoyl-CoA scintillation readout). Conditions: geometric mean; FLAG-hDGAT2 membrane fraction; 2 h preincubation; read-out: IC50 for inhibition of DGAT2.
Format: biochemical
Experimental: Recombinant baculovirus for the FLAG-tagged hDGAT2 was generated in SF9 insect cells using Bac-to-Bac baculovirus expression system (Invitrogen) according to the manufacturer's protocol. For the expression of hDGAT2, SF9 cells (20 L) grown in Sf90011 media were infected with hDGAT2 baculovirus at a multiplicity of infection of 1 in a Wave Bioreactor System 20/50P wave bag (GE Healthcare). After 40 hours of infection, the cells were then harvested by centrifugation at 5,000×g. The cell pellets were washed by resuspending in phosphate buffered saline (PBS) and collected by centrifugation at 5,000×g. The cell paste was flash frozen in liquid N2 and stored at −80° C. until needed. All operations below were at 4° C. unless otherwise noted. The cells were resuspended in lysis buffer (50 mM Tris-HCl, pH 8.0, 250 mM sucrose) including 1 mM ethylenediaminetetraacetic acid (EDTA) and the complete protease inhibitor cocktail (Roche Diagnostics) at a ratio of 3 ml buffer per 1 g cell paste. The cells were lysed by dounce homogenizer. The cell debris was removed by centrifugation at 1,000×g for 20 min, and the supernatant was centrifuged at 100,000×g for 1 hour. The resulting pellet was rinsed three times by filling ultracentrifuge tubes to the top with ice cold PBS before decanting. The washed pellet was resuspended with gentle stirring for 1 hour in lysis buffer containing 8 mM 3-[(3-cholamidopropyl)dimethylammonio]-1-propanesulfonate (CHAPS) at a ratio of 1 mL buffer per 1 g of original cell paste and centrifuged again at 100,000×g for 1 hour. The resulting supernatant was aliquotted, flash frozen in liquid N2, and stored at −80° C. until use.
For determination of IC50 values, the reactions were carried out in 384-well white Polyplates (Perkin Elmer) in a total volume of 20 μL. To […] compounds dissolved in 100% DMSO and spotted at the bottom of each well, 5 μL of 0.04% bovine serum albumin (BSA) (fatty acid free, Sigma Aldrich) was added and the mixture was incubated at room temperature for 20 minutes. To this mixture, 10 μL of hDGAT2 membrane fraction (0.01 mg/mL) diluted in 100 mM Hepes-NaOH, pH 7.4, 20 mM MgCl2 containing 200 nM methyl arachidonyl fluorophosphonate (Cayman Chemical; dried from ethyl acetate stock solution under argon gas and dissolved in DMSO as 5 mM stock) was added. After this mixture was preincubated at room temperature for 2 hours, DGAT2 reactions were initiated by the addition of 4 μL of substrates containing 30 μM [1-^14C]decanoyl-CoA (custom-synthesized by Perkin Elmer, 50 mCi/mmol) and 125 μM 1,2-didecanoyl-sn-glycerol (Avanti Polar Lipids) dissolved in 12.5% acetone. The reaction mixtures were incubated at room temperature for 40 min and the reactions were stopped by addition of 5 μL of 1% H3PO4. After the addition of 45 μL MicroScint-E (Perkin-Elmer), plates were sealed with Top Seal-A covers (Perkin-Elmer) and phase partitioning of substrates and products was achieved using a HT-91100 microplate orbital shaker (Big Bear Automation, Santa Clara, Calif.). Plates were centrifuged at 2,000×g for 1 min in an Allegra 6R Centrifuge (Beckman Coulter) and then were sealed again with fresh covers before reading in a 1450 Microbeta Wallac Trilux Scintillation Counter (Perkin Elmer). DGAT2 activity was measured by quantifying the generated product [^14C]tridecanoylglycerol in the upper organic phase.
Inhibitors were tested at eleven different concentrations to generate IC50 values for each compound.

Sequence of hDGAT2 (Q96PD7 whole entry): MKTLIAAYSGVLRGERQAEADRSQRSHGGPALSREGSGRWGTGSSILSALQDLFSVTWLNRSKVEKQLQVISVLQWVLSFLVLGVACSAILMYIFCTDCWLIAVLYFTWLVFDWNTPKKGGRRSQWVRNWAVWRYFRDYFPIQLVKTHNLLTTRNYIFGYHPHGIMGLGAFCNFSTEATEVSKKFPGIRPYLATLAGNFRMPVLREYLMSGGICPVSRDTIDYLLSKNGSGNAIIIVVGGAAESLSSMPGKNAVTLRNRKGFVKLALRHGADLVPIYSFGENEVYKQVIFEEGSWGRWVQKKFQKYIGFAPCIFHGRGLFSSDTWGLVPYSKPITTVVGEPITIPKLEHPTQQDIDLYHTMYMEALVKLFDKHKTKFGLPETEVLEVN

IC50 [nM]	Structure (SMILES)
1.4	CCOc1ccccc1O[C@@H]1CCCN(c2ncc(C(=O)N3Cc4ccccc4C3)cn2)C1 [Example 19.12, (R)-(2-(3-(2-ethoxyphenoxy)piperidin-1-yl)pyrimidin-5-yl)(isoindolin-2-yl)methanone]
76.6	CCOc1ccccc1O[C@@H]1CCCN(c2ncc(C(=O)NCc3cccc(C(=O)O)c3OC)cn2)C1 [Example 14, (R)-3-((2-(3-(2-ethoxyphenoxy)piperidin-1-yl)pyrimidine-5-carboxamido)methyl)-2-methoxybenzoic acid]
104	CCOc1ccccc1O[C@@H]1CCCN(c2ncc(C(=O)N(C)C)cn2)C1 [Example 20.3, (R)-2-(3-(2-ethoxyphenoxy)piperidin-1-yl)-N,N-dimethylpyrimidine-5-carboxamide]
102	CCOc1ccccc1O[C@@H]1CCCN(c2ncc(C(=O)NCCS(C)(=O)=O)cn2)C1 [Example 19.8, (R)-2-(3-(2-ethoxyphenoxy)piperidin-1-yl)-N-(2-(methylsulfonyl)ethyl) pyrimidine-5-carboxamide]
144	CCOc1ccccc1O[C@@H]1CCCN(c2ncc(C(=O)NCC(=O)NC)cn2)C1 [Example 20.6, (R)-2-(3-(2-ethoxyphenoxy)piperidin-1-yl)-N-(2-(methylamino)-2-oxoethyl)pyrimidine-5-carboxamide]
32.4	CCOc1ccccc1O[C@@H]1CCCN(c2ncc(C(=O)NCCn3cncn3)cn2)C1 [Example 19.10, (R)-N-(2-(1H-1,2,4-triazol-1-yl)ethyl)-2-(3-(2-ethoxyphenoxy)piperidin-1-yl)pyrimidine-5-carboxamide]
431	CCOc1ccccc1O[C@@H]1CCCN(c2ncc(C(=O)NCCCc3nn[nH]n3)cn2)C1 [Example 20.2, (R)-N-(3-(2H-tetrazol-5-yl)propyl)-2-(3-(2-ethoxyphenoxy)piperidin-1-yl)pyrimidine-5-carboxamide]
21.5	CCOc1ccccc1O[C@@H]1CCCN(c2ncc(C(=O)N3C[C@H]4C[C@@H]3CO4)cn2)C1 [Example 19.14, ((1R,4R)-2-oxa-5-azabicyclo[2.2.1]heptan-5-yl)(2-((R)-3-(2-ethoxyphenoxy)piperidin-1-yl)pyrimidin-5-yl)methanone]
53.3	CCOc1ccccc1O[C@@H]1CCCN(c2ncc(C(=O)NCCC(=O)NC)cn2)C1 [Example 20.4, (R)-2-(3-(2-ethoxyphenoxy)piperidin-1-yl)-N-(3-(methylamino)-3-oxopropyl)pyrimidine-5-carboxamide]
1.5	CCOc1ccccc1O[C@@H]1CCCN(c2ncc(C(=O)N[C@H]3CCc4ccccc43)cn2)C1 [Example 21.1, N-((S)-2,3-dihydro-1H-inden-1-yl)-2-((R)-3-(2-ethoxyphenoxy)piperidin-1-yl)pyrimidine-5-carboxamide]
10.7	CCOc1ccccc1O[C@@H]1CCCN(c2ncc(C(=O)NC3CCC3)cn2)C1 [Example 19.22, (R)-N-cyclobutyl-2-(3-(2-ethoxyphenoxy)piperidin-1-yl)pyrimidine-5-carboxamide]
18.6	CCOc1ccccc1O[C@@H]1CCCN(c2ncc(C(=O)NCC3CC3)cn2)C1 [Example 19.4, (R)-N-(cyclopropylmethyl)-2-(3-(2-ethoxyphenoxy)piperidin-1-yl)pyrimidine-5-carboxamide]
149	CCOc1ccccc1O[C@@H]1CCCN(c2ncc(C(=O)NCCC(N)=O)cn2)C1 [Example 20.1, (R)-N-(3-amino-3-oxopropyl)-2-(3-(2-ethoxyphenoxy)piperidin-1-yl)pyrimidine-5-carboxamide]
34.9	CCOc1ccccc1O[C@@H]1CCCN(c2ncc(C(=O)N3Cc4cnn(C)c4C3)cn2)C1 [Example 19.6, (R)-(2-(3-(2-ethoxyphenoxy)piperidin-1-yl)pyrimidin-5-yl)(1-methyl-4,6-dihydropyrrolo[3,4-c]pyrazol-5(1H)-yl)methanone]
124	CCOc1ccccc1O[C@@H]1CCCN(c2ncc(C(=O)NCC(=N)N)cn2)C1 [Example 19.5, (R)-N-(2-amino-2-iminoethyl)-2-(3-(2-ethoxyphenoxy)piperidin-1-yl)pyrimidine-5-carboxamide]
33.3	CCOc1ccccc1O[C@@H]1CCCN(c2ncc(C(=O)Nc3cncnc3)cn2)C1 [Example 19.20, (R)-2-(3-(2-ethoxyphenoxy)piperidin-1-yl)-N-(pyrimidin-5-yl)pyrimidine-5-carboxamide]
46.7	CCOc1ccccc1O[C@@H]1CCCN(c2ncc(C(=O)N[C@H]3CNC(=O)C3)cn2)C1 [Example 19.13, 2-((R)-3-(2-ethoxyphenoxy)piperidin-1-yl)-N-((R)-5-oxopyrrolidin-3-yl)pyrimidine-5-carboxamide]
22.5	CCOc1ccccc1O[C@@H]1CCCN(c2ncc(C(=O)NCc3cnccn3)cn2)C1 [Example 19.18, (R)-2-(3-(2-ethoxyphenoxy)piperidin-1-yl)-N-(pyrazin-2-ylmethyl)pyrimidine-5-carboxamide]
24.5	CCOc1ccccc1O[C@@H]1CCCN(c2ncc(C(=O)N3CCCC3)cn2)C1 [Example 20.9, (R)-(2-(3-(2-ethoxyphenoxy)piperidin-1-yl)pyrimidin-5-yl)(pyrrolidin-1-yl)methanone]
14.3	CCOc1ccccc1O[C@@H]1CCCN(c2ncc(C(=O)N3CC(OC)C3)cn2)C1 [Example 19.9, (R)-(2-(3-(2-ethoxyphenoxy)piperidin-1-yl)pyrimidin-5-yl)(3-methoxyazetidin-1-yl)methanone]
7.9	CCOc1ccccc1O[C@@H]1CCCN(c2ncc(C(=O)N3CC(F)(F)C3)cn2)C1 [Example 20.7, (R)-(3,3-difluoroazetidin-1-yl)(2-(3-(2-ethoxyphenoxy)piperidin-1-yl)pyrimidin-5-yl)methanone]
11.2	CCOc1ccccc1O[C@@H]1CCCN(c2ncc(C(=O)NCc3cocn3)cn2)C1 [Example 19.15, (R)-2-(3-(2-ethoxyphenoxy)piperidin-1-yl)-N-(oxazol-4-ylmethyl)pyrimidine-5-carboxamide]
0.6	CCOc1ccccc1O[C@@H]1CCCN(c2ncc(C(=O)N3CC(Oc4ccccc4)C3)cn2)C1 [Example 21.2, (R)-(2-(3-(2-ethoxyphenoxy)piperidin-1-yl)pyrimidin-5-yl)(3-phenoxyazetidin-1-yl)methanone]
11.1	CCOc1ccccc1O[C@@H]1CCCN(c2ncc(C(=O)Nc3ccon3)cn2)C1 [Example 19.19, (R)-2-(3-(2-ethoxyphenoxy)piperidin-1-yl)-N-(isoxazol-3-yl)pyrimidine-5-carboxamide]
10.8	CCOc1ccccc1O[C@@H]1CCCN(c2ncc(C(=O)NCc3ccon3)cn2)C1 [Example 19.3, (R)-2-(3-(2-ethoxyphenoxy)piperidin-1-yl)-N-(isoxazol-3-ylmethyl)pyrimidine-5-carboxamide]
22.6	CCOc1ccccc1O[C@@H]1CCCN(c2ncc(C(=O)N3CCOCC3)cn2)C1 [Example 19.1, (R)-(2-(3-(2-ethoxyphenoxy)piperidin-1-yl)pyrimidin-5-yl)(morpholino)methanone]
122	CCOc1ccccc1O[C@@H]1CCCN(c2ncc(C(=O)N[C@@H]3CNC(=O)C3)cn2)C1 [Example 19.16, 2-((R)-3-(2-ethoxyphenoxy)piperidin-1-yl)-N-((S)-5-oxopyrrolidin-3-yl)pyrimidine-5-carboxamide]

Structure (SMILES)	IC50 [nM]
CCOc1ccccc1O[C@@H]1CCCN(c2ncc(C(=O)N3CCC3)cn2)C1 [Example 19.11, (R)-azetidin-1-yl(2-(3-(2-ethoxyphenoxy)piperidin-1-yl)pyrimidin-5-yl)methanone]	26.7

Same assay, conditions: read-out: IC50 for inhibition of DGAT2

Structure (SMILES)	IC50 [nM]
CCOc1ccccc1O[C@@H]1CCCN(c2ncc(C(=O)N3CCCCC3)cn2)C1 [Example 20.11, (R)-(2-(3-(2-ethoxyphenoxy)piperidin-1-yl)pyrimidin-5-yl)(piperidin-1-yl)methanone]	15.7
